Assay results from US20240342203A1, “COMPOSITIONS FOR ORAL CANCER OR AN OROPHARYNGEAL CANCER” (GR BIOSYSTEMS, INC., priority 2020, published 2024).
Entries after “also recorded” stand apart in the source; their conditions may differ.

What was measured:
MyD88 adaptor protein = details: peritoneal and colonic macrophages; cited from earlier work
MMP-2 = test: Western blot of MMP-2 protein expression/release in Cal-27 cells treated with PGG; assay type: cell-based; details: 48 hours, cell media
Method: (§1) Squamous cell carcinoma cells (Cal 27) were purchased from ATCC (CRL-2095) and grown in DMEM with Glutamax, 10% FBS and Penicillin/Streptomycin (1055-024, 15140-122, 10438-018 Gibco-ThermoFischer Scientific) and kept at 37° C. in a humidified air chamber with 5% CO2. Cells were seeded at 3×10^5 cells/flask for the experiments and then grown to confluency. Cells between 3 and 10 passages were used for all experiments. 1,2,3,4,6-Penta-O-galloyl-β-D-glucose (G7548, Sigma-Aldrich) was dissolved in dimethylsulfoxide (DMSO) to obtain a 100 mM stock solution. Subsequent dilutions were done using water, and no flask contained more than 0.5 μL of DMSO (0.01%). […] During the protein extraction, media were collected, flash frozen and saved for BCA, Western Blot, and ELISA analysis. […] The proteins were detected and visualized by fluorescence using the LI-COR Odyssey Classic Infrared Imaging system (LI-COR Biosciences). Densitometry analysis of specific bands was performed with the Image Studio software provided by LI-COR Biosciences and the images analyzed using ImageStudio (LI-COR Biosciences). Statistical analysis, including one-way ANOVA with Dunnett's Multiple Comparison Test and Bonferroni, was done using GraphPad Prism 7 (Graph-Pad Software, La Jolla, CA, USA). p values were calculated using the unpaired two-sided Student's t test to compare groups, with statistical significance set at p<0.05.

MMP-13 = test: Western blot of MMP-13 protein expression/release in Cal-27 cells treated with PGG; assay type: cell-based; details: 48 hours
Method: as §1

TNF-α = details: doses as low as 5 μM; cited from earlier work
Cal 27 cells = test: Transmembrane/Boyden Matrigel invasion assay; assay type: cell-based; details: for percentage of cells invading the membrane compared with untreated control: 24 hour treatment; for Number of cells invading through Matrigel: 24 hour
Method: Squamous cell carcinoma cells (Cal 27) were purchased from ATCC (CRL-2095) and grown in DMEM with Glutamax, 10% FBS and Penicillin/Streptomycin (1055-024, 15140-122, 10438-018 Gibco-ThermoFischer Scientific) and kept at 37° C. in a humidified air chamber with 5% CO2. Cells were seeded at 3×10^5 cells/flask for the experiments and then grown to confluency. Cells between 3 and 10 passages were used for all experiments. Transmembrane/Boyden assay plates with Matrigel were purchased from Corning. DMEM with 10% FBS was used as a chemoattractant in the lower chamber while the cells in the upper chamber were cultured in DMEM with 1% FBS. Wells were prepared with different concentrations of PGG (0-10 μM) and left to incubate for 24 hour. After 24 hour media has discarded and the cells invading the Matrigel were counted according to established protocols.

MMP-9 = test: Western blot of MMP-9 protein expression/secretion in Cal-27 cells treated with PGG; assay type: cell-based; details: 48 hours
Method: as §1

MMP-14 gene = test: Real time quantitative PCR of MMP-14 gene expression in Cal-27 cells; assay type: cell-based, Human; details: PGG 10-20 μM
Method: (§2) Squamous cell carcinoma cells (Cal 27) were purchased from ATCC (CRL-2095) and grown in DMEM with Glutamax, 10% FBS and Penicillin/Streptomycin (1055-024, 15140-122, 10438-018 Gibco-ThermoFischer Scientific) and kept at 37° C. in a humidified air chamber with 5% CO2. Cells were seeded at 3×10^5 cells/flask for the experiments and then grown to confluency. Cells between 3 and 10 passages were used for all experiments. 1,2,3,4,6-Penta-O-galloyl-β-D-glucose (G7548, Sigma-Aldrich) was dissolved in dimethylsulfoxide (DMSO) to obtain a 100 mM stock solution. Subsequent dilutions were done using water, and no flask contained more than 0.5 μL of DMSO (0.01%). […] After washing the tissue culture with 1× phosphate buffered saline (PBS), the cells were lysed, and the RNA purified using a Qiagen RNeasy mini kit using the manufacturer's recommended protocol. All samples were treated with Qiagen DNase. One microgram of RNA was used for reverse transcription and subsequent SYBR® Green real time PCR for the genes of interest as previously described. […] Real time quantitative PCR was performed using an Applied Biosciences StepOne plus instrument and analyzed with StepOne software v2.3. The relative amounts of transcripts from each gene were normalized to reference gene GAPDH and calculated as follows: ΔΔCT=the average ΔCT of […]−the average ΔCT of […], and their fold difference=2−ΔΔCT.

MMP-2 gene = test: Real time quantitative PCR of MMP-2 gene expression in Cal-27 cells; assay type: cell-based, Human
Method: as §2

MMP-9 gene = test: Real time quantitative PCR of MMP-9 gene expression in Cal-27 cells; assay type: cell-based, Human; details: any PGG dose (1, 2.5, 5, 10 and 20 μM), n=4, p>0.05
Method: as §2

MMP-13 gene = test: Real time quantitative PCR of MMP-13 gene expression in Cal-27 cells; assay type: cell-based, Human; details: 10 or 20 μM PGG, p<0.05 and p<0.001
Method: as §2

[1] = test system: peripheral blood mononuclear cells (PBMCs); details: PBMCs treated with PGG; cited from earlier work
Stat3 = test: Western blot of Stat3 and pStat3 in Cal-27 cells treated with PGG; assay type: cell-based; details: 48 hours
Method: as §1

[2] = test system: toll-like receptors 4 (TLR4); details: peritoneal and colonic macrophages; cited from earlier work

O=C(OC[C@H]1O[C@@H](OC(=O)c2cc(O)c(O)c(O)c2)[C@H](OC(=O)c2cc(O)c(O)c(O)c2)[C@@H](OC(=O)c2cc(O)c(O)c(O)c2)[C@@H]1OC(=O)c1cc(O)c(O)c(O)c1)c1cc(O)c(O)c(O)c1 [PGG, 1,2,3,4,6-penta-O-galloyl-β-D-glucose]
interaction with MyD88 adaptor protein; effect on TNF-α, IL-1β and IL-6 production (MyD88 adaptor protein): interacted directly with MyD88 adaptor protein thereby decreasing the production of TNF-α, IL-1β and IL-6
MMP-2 expression vs non-treated group (MMP-2; Cal-27 cells, 10 μM PGG, n=4, p<0.01): significantly decreased; also recorded: significantly lower
MMP-2 expression vs non-treated group (MMP-2; Cal-27 cells, 1, 2.5 or 5 μM PGG, n=4, p>0.05): not significantly different
MMP-13 expression vs non-treated group (MMP-13; Cal-27 cells, 10 μM PGG, normalized to Histone H3, n=4, p<0.01): significantly decreased; also recorded: significantly lower
MMP-13 expression vs non-treated group (MMP-13; Cal-27 cells, 1, 2.5 or 5 μM PGG, normalized to Histone H3, n=4, p>0.05): not significantly different
suppression of LPS-induced TNF-α production (TNF-α): ≤ 90%
percentage of cells invading the membrane compared with untreated control (Cal 27 cells; 0.5 μM PGG): 44.5%
percentage of cells invading the membrane compared with untreated control (Cal 27 cells; 10 μM PGG (maximum effect)): 22.3%
Number of cells invading through Matrigel (Cal 27 cells; PGG 0.5 and 1 μM, n=4, p<0.001): significantly lower
Number of cells invading through Matrigel (Cal 27 cells; PGG 2.5, 5 and 10 μM, n=4, p<0.0001): significantly lower
MMP-9 expression vs non-treated group (MMP-9; 1 or 2.5 μM PGG, normalized to Histone H3, n=4, p>0.05): not significantly different
MMP-9 expression vs non-treated group (MMP-9; 5 or 10 μM PGG, normalized to Histone H3, n=4, p<0.05 and p<0.01): significantly decreased; also recorded: significantly lower
MMP-14 gene expression (mRNA) vs non-treated (MMP-14 gene): reduces
MMP-2 gene expression (mRNA) (MMP-2 gene; PGG 5 and 10 μM, GAPDH housekeeping, n=4, p<0.0001): significantly decreased
MMP-2 gene expression (mRNA) vs non-treated (MMP-2 gene; PGG 10-20 μM): reduces
MMP-9 gene expression (mRNA) vs non-treated group (MMP-9 gene): not significantly different; also recorded: did not significantly decrease
MMP-13 gene expression (mRNA) (MMP-13 gene): decreased; also recorded: reduces
production of TNF-α and IL-1β [1]: resulted in the production of TNF-α and IL-1β
Stat3 phosphorylation (pStat3) (Stat3; PGG at different concentrations, normalized to Histone H3, n=4, p<0.0001): significantly decreases; also recorded: decrease of Stat3 phosphorylation
Non-phosphorylated / total Stat3 vs non-treated cells (Stat3; PGG at varying concentrations, n=4, p<0.0001): significantly higher; also recorded: increase in total Stat3
interference with binding of LPS to TLR4 [2]: did not interfere
